{"source": "patent US8637685B2", "about": "“Schweinfurthin analogues” (University of Iowa Research Foundation, priority 2008, dated 2014)", "key": {"[1]": {"system": "SF-295 cells", "assay": "Test A cellular morphology (phalloidin/DAPI staining), SF-295", "format": "cell-based, human", "experimental": "(§1) Cell Culture—SF-295 cells were maintained in RPMI 1640 supplemented with 10% fetal calf serum, and penstreptamycin. A-549 cells were maintained in F-12 media with 10% fetal calf serum and penstreptamycin. Both cell lines were incubated at 37° C. and 5% CO2.\n(§2) Cellular Morphology—Cells were plated on sterilized coverslips in 6-well plates and allowed to reach 65% confluency before treatment with indicated compounds. At the conclusion of the treatment interval, cells were rinsed and fixed with 3.7% formaldehyde for 15 minutes. After subsequent rinses in PBS, cells were permeabilized with 0.2% triton X-100 for 4 minutes and rinsed in PBS. Cells were then incubated with 1% BSA for 30 minutes before incubation with phalloidin stain (Molecular Probes, Eugene, Oreg.) for 20 minutes. At the completion of staining interval, cells were rinsed and mounted using Vectashield mounting media containing DAPI (Vector laboratories, Inc., Burlingame, Calif.). Slides were imaged using a Bio-Rad Multi-photon microscope and processed using Image-J software."}, "[2]": {"system": "A-549 cells", "assay": "Test A cellular morphology (phalloidin/DAPI staining), A-549", "format": "cell-based, human", "experimental": "as §1, §2"}, "[3]": {"assay": "Fluorescence properties of target compounds (Table 1)", "format": "physicochemical", "conditions": "for Absorbtion Maximum / Emission Maximum / Extinction Coefficient: Concentration 50 uM; for Extinction Coefficient: in M-1 cm-1 (unit assumed)", "text": "This shift to the green region for the fluorescence emission allows cellular studies on these compounds without any interference from autofluroescence."}, "[4]": {"system": "SF-295 cell line", "assay": "Test C MTT assay in schweinfurthin sensitive SF-295 cell line", "format": "cell-based, human", "text": "(§3) The National Cancer Institute 60 human tumor cell line anti-cancer assay has been used for indicating the schweinfurthin-like activity of various analogues. Additionally, a three pronged approach that allows a more rapid turn around can be used. This three pronged testing scheme involves 1) MTT assay in schweinfurthin sensitive human glioma derived SF-295 cell line; 2) MTT assay in the schweinfurthin resistant human non-small cell lung cancer derived cell line A549; and 3) microscopic observation of cell morphology changes at 24 and 48 hours. Compounds displaying schweinfurthin-like activity show a dramatic change in cell morphology at concentrations consistent with anti-cancer activity. This three pronged testing scheme is a very simple method that has successfully identified compounds with and without schweinfurthin-like activity. Accordingly, in one embodiment the invention provides a method for identifying a compound with schweinfurthin-like activity comprising, subjecting the compound to 1) an MTT assay in a schweinfurthin sensitive human glioma derived SF-295 cell line; 2) an MTT assay in the schweinfurthin resistant human non-small cell lung cancer derived cell line A549; and 3) a microscopic observation of cell morphology changes at one or more preselected time points (e.g. at about 24 or 48 hours)."}, "[5]": {"system": "A549 cell line", "assay": "Test C MTT assay in schweinfurthin resistant A549 cell line", "format": "cell-based, human", "conditions": "A549 lung cancer line", "text": "as §3"}, "[6]": {"system": "SF-295 vs. A549 cell lines", "assay": "Test C three pronged testing scheme for schweinfurthin-like activity", "format": "cell-based, human", "conditions": "for schweinfurthin-like activity: three pronged scheme: MTT SF-295, MTT A549, morphology", "text": "as §3"}, "[7]": {"assay": "Compound stability (no method given)", "format": "physicochemical"}}}
{"compound": "COc1cc(C=Cc2cc(O)c(CC=C(C)CCC=C(C)C)c(O)c2)cc2c1OC1(C)CCC(O)C(C)(C)C1C2", "note": "(stereo not shown) [3-deoxyschweinfurthin B]", "values": [{"measurement": "cell morphology", "setting": "[1]; 500 nM, 24 hours", "value": "morphologic characteristics similar to control cells"}, {"measurement": "cell morphology", "setting": "[1]; 500 nM, 48 hours", "value": "characteristic changes in cell morphology"}, {"measurement": "cell morphology changes induced by schweinfurthins", "setting": "[1]; time points beyond 24 hours", "value": "a decrease in cell area and a reduction in F-actin"}, {"measurement": "cell morphology", "setting": "[2]; 500 nM, 24 hours or 48 hours", "value": "does not induce a morphologic change"}]}
{"compound": "C[C@@H](N)[C@H]1CC[C@H](C(=O)Nc2ccncc2)CC1", "note": "[Compound Y-27632]", "values": [{"measurement": "cell morphology", "setting": "[1]; 10 μM", "value": "caused jagged F-actin at the periphery and long slender projections to form"}, {"measurement": "cell morphology", "setting": "[2]; 10 μM", "value": "induces ruffled F-actin at the edges of the A-549 cells"}]}
{"compound": "COc1cc(/C=C/c2cc3c(c(OC)c2)O[C@]2(C)C[C@@H](O)[C@@H](O)C(C)(C)[C@H]2C3)cc(O)c1/C=C/c1ccc([N+](=O)[O-])cc1", "note": "[Compound 235]", "values": [{"measurement": "stokes shift compared with amine compounds 227, 232 and 237", "setting": "[3]", "value": "larger stokes shifts than the amine compounds"}]}
{"compound": "COc1cc(/C=C/c2cc(O)c(/C=C/c3ccc([N+](=O)[O-])cc3)c(O)c2)cc2c1O[C@]1(C)CC[C@@H](O)C(C)(C)[C@H]1C2", "note": "[Compound 219]", "values": [{"measurement": "stokes shift compared with amine compounds 227, 232 and 237", "setting": "[3]", "value": "larger stokes shifts than the amine compounds"}, {"measurement": "Absorbtion Maximum", "setting": "[3]", "value": 426}, {"measurement": "Emission Maximum", "setting": "[3]", "value": 593}, {"measurement": "Extinction Coefficient", "setting": "[3]", "value": 26500}, {"measurement": "activity relative to standard 3-deoxyschweinfurthin B", "setting": "[4]; SF-295 cell line", "value": "almost identical activity to the standard 3-deoxyschweinfurthin B"}, {"measurement": "potency rank among compounds tested", "setting": "[4]; Test C scheme", "value": "most potent of these compounds"}, {"measurement": "potency relative to 3-deoxyschweinfurthin B", "setting": "[5]", "value": "almost an order of magnitude more potent than 3-deoxyschweinfurthin B"}, {"measurement": "schweinfurthin-like activity", "setting": "[6]", "value": "still shows the significant drop in activity in the A549 line vs. the SF-295 line"}]}
{"compound": "COc1cc(/C=C/c2cc3c(c(OC)c2)O[C@]2(C)CC[C@@H](O)C(C)(C)[C@H]2C3)cc(O)c1/C=C/c1ccc([N+](=O)[O-])cc1", "note": "[Compound 225]", "values": [{"measurement": "stokes shift compared with amine compounds 227, 232 and 237", "setting": "[3]", "value": "larger stokes shifts than the amine compounds"}, {"measurement": "Absorbtion Maximum", "setting": "[3]", "value": 429}, {"measurement": "Emission Maximum", "setting": "[3]", "value": 557}, {"measurement": "Extinction Coefficient", "setting": "[3]", "value": 17902}, {"measurement": "activity relative to the parent resorcinol", "setting": "[4]; assay not specified", "value": "only slightly diminished activity"}, {"measurement": "schweinfurthin-like activity", "setting": "[6]", "value": "displayed activity as expected"}, {"measurement": "stability relative to the parent resorcinol", "setting": "[7]", "value": "much improved stability"}]}
{"compound": "COc1cc(/C=C/c2cc3c(c(OC)c2)O[C@]2(C)C[C@@H](O)[C@@H](O)C(C)(C)[C@H]2C3)cc(O)c1/C=C/c1ccc(N)cc1", "note": "[Compound 237]", "values": [{"measurement": "potency relative to 3-deoxyschweinfurthin B", "setting": "[6]; cell line not specified", "value": "neither of the amine substituted analogues (227 and 237) were more potent than 3-deoxyschweinfurthin B"}, {"measurement": "activity relative to 3-deoxy compound 227", "setting": "[6]; dihydroxylated A-ring vs. 3-deoxy", "value": "not significantly more active than the 3-deoxy compound 227"}, {"measurement": "schweinfurthin-like activity", "setting": "[6]", "value": "did show all of the hall marks of schweinfurthin like activity"}]}
